The values that follow come from patent US20030190692A1, “Method for measuring the activity of the blood clotting factor XIIIA” (priority 2000, published 2003).

Test [1] has as its system FXIIIa. As to conditions: animal models; Leidy et al. 1990; cited from earlier work.
Test [2] has as its target FXIIIa (Homo sapiens, UniProt P00488). The test can be described thus: biochemical.

Chain of FXIIIa (Homo sapiens, UniProt P00488) (P00488 39-732 limits assumed): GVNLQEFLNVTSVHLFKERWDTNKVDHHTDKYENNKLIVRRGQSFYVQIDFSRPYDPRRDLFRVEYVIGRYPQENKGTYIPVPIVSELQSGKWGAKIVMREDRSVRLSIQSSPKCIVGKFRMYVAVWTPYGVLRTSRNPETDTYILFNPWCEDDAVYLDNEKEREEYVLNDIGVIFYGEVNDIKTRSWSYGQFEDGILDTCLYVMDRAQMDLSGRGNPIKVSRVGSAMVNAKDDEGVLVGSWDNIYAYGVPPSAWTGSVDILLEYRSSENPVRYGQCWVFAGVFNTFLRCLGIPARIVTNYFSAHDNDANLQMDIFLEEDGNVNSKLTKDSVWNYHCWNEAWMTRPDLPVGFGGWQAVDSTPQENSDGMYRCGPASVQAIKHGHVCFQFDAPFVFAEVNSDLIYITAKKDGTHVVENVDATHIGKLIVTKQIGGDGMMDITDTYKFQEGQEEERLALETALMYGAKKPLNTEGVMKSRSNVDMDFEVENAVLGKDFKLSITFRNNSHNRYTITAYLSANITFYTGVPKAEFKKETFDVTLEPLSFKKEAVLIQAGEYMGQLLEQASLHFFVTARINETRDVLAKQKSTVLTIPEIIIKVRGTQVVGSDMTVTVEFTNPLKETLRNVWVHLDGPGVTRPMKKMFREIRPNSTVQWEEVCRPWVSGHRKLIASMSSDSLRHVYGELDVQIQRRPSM

For the compound `CC(=O)CSc1n[n+]2c(C)csc2s1.[O-][Cl+3]([O-])([O-])[O-]` [L722151], in the test on FXIIIa [1], the “Effect on thrombolysis by a plasminogen activator” value was “improve the thrombolysis”.

The IC50 is the concentration that gives 50% inhibition. Low readings indicate higher potency, high ones lower potency. `O=C(O)CI` [iodoacetic acid] gave an IC50 on FXIIIa [2] of 147 µM.
